Laboratory results taken from US12565485B2, “Solid forms of 1-((S)-4-((R)-7-(6-amino-4-methyl-3-(trifluoromethyl)pyridin-2-yl)-6-chloro-8-fluoro-2-(((s)-1-methylpyrrolidin-2-yl)methoxy)quinazolin-4-yl)-3-methylpiperazin-1-yl)prop-2-en-1-one” (Genentech, Inc., priority 2022, dated 2026).

Key:
Assay type in all cases: physicochemical
[1] = Heating under N2 protection (VT-XRPD), form change; settings: heating to 100° C. under N2 protection, cooled down and exposed to ambient conditions; listed as adipate Type A
Description: Compound B Form A was obtained from an acetone system and the sample was air dried at RT. […] (peak temperature) before the possible overlapped peak with peak temperature at 156.3° C. (FIG. 12). Based on the integrals, the stoichiometric ratio of fumaric acid:freebase was determined to be 1.03. A peak of acetone was observed and approximately 0.49 molar acetone (4.4 wt %) was detected. The HPLC purity of Compound B Form A was determined to be 93.56 area %. […] Around 0.39 molar acetone (3.5 wt %) was still detected. One endotherm at 58.7° C. and an overlapped peak with peak temperature at 157.1° C. were still observed on the sample obtained after heating. The first endotherm might be caused by re-adsorption of moisture. Since ˜3.5 wt % acetone was still detected from NMR, Compound B Form A is expected to be an acetone/H2O co-solvate. […]

[2] = Form change before and after drying (XRPD)
Description: The wet sample was vacuum dried at RT for 3 hrs. […] A solid was obtained with a yield of 62.2%. […] (peak temperature). Based on the integrals in NMR spectrum, the stoichiometric ratio of adipic acid:freebase was determined to be 1.06. A peak of EtOAc was observed. Around 0.07 molar EtOAc (0.8 wt %) was detected, which was consistent with TGA weight loss.
(peak), and one small endotherm at 158.8° C. […] Based on the integrals, the stoichiometric ratio of adipic acid:freebase was determined to be 1.65.
(peak temperature). Based on the integrals, the stoichiometric ratio of adipic acid:freebase was determined to be 1.06. Peak of THF was observed. Around 0.17 molar THF (1.9 wt %) was detected, which was consistent with TGA weight loss.
Compound B Form A was obtained from an acetone system and the sample was air dried at RT. […] (peak temperature) before the possible overlapped peak with peak temperature at 156.3° C. (FIG. 12). Based on the integrals, the stoichiometric ratio of fumaric acid:freebase was determined to be 1.03. A peak of acetone was observed and approximately 0.49 molar acetone (4.4 wt %) was detected. The HPLC purity of Compound B Form A was determined to be 93.56 area %. […] Around 0.39 molar acetone (3.5 wt %) was still detected. One endotherm at 58.7° C. and an overlapped peak with peak temperature at 157.1° C. were still observed on the sample obtained after heating. The first endotherm might be caused by re-adsorption of moisture. Since ˜3.5 wt % acetone was still detected from NMR, Compound B Form A is expected to be an acetone/H2O co-solvate.
Compound C Form A was obtained from EtOAc system and the sample was air dried at RT. […] HPLC purity of Compound C Form A was determined to be 95.18 area %.

[3] = Slurry conversion experiments (XRPD of isolated solids); settings: for Slurry conversion result (XRPD form): different solvent systems
Description: Slurry conversion experiments were conducted at RT in different solvent systems. About 15˜20 mg of freebase starting material (Compound 1) was suspended in 0.5 mL of solvent in an HPLC vial. Solids were isolated for XRPD analysis after magnetically stirring at RT.
Slurry at 5°. Slurry conversion experiments were conducted at 5° C. in different solvent systems. About 15˜20 mg of freebase starting material (Compound 1) was suspended in 0.5 mL of solvent in an HPLC vial. Solids were isolated for XRPD analysis after magnetically stirring at 5° C.
Slurry at 50°. Slurry conversion experiments were conducted at 50° C. in different solvent systems. About 20 mg of freebase starting material (Compound 1) was suspended in 0.5 mL of solvent in an HPLC vial. Solids were isolated for XRPD analysis after magnetical stirring at 50° C.
Slurry at RT for Compound A. Slurry conversion experiments were conducted at RT in different solvent systems. […] Solids were isolated for XRPD analysis after magnetic stirring at RT.
Slurry at 50° for Compound A. Slurry conversion experiments were conducted at 50° C. in different solvent systems. […] Solids were isolated for XRPD analysis after magnetic stirring at 50° C.

Liquid vapor diffusion = settings: Compound A, RT
Description: (§1) Liquid vapor diffusion. Liquid vapor diffusion experiments were conducted in different solvent systems. […] This solution was then placed into a 20-mL vial with 3 mL of corresponding anti-solvent. The 20-mL vial was sealed with a cap and kept at RT allowing sufficient time for organic vapor to interact with the solution. The precipitates were isolated for XRPD analysis.
as §1, with “diffusion Compound A.” for “diffusion.”

Slow evaporation = settings: Compound A, evaporation at RT
Description: Slow evaporation. Slow evaporation experiments were performed under 10 conditions. Briefly, about 15˜20 mg of freebase starting material (810935-01-A) was dissolved in 0.5˜1.0 mL of solvent in a 3-mL glass vial.
Slow evaporation Compound A. Slow evaporation experiments were performed under seven conditions.

Form change before and after drying ([2]; air dried at RT): No form change was observed
Form change before and after drying ([2]; vacuum dried at RT for 3 hrs): No form change was observed
Slurry conversion result (XRPD form) ([3]; 50° C.): Compound A Form A was obtained
Result ([3]; Compound A slurry at 50° C., Anisole): Compound A Form A
Result ([3]; Compound A slurry at 50° C., CPME): Compound A Form A
Result ([3]; Compound A slurry at 50° C., EtOAc): Compound A Form A
Result ([3]; Compound A slurry at 50° C., IPAc): Compound A Form A
Result ([3]; Compound A slurry at 50° C., MIBK): Compound A Form A
Result ([3]; Compound A slurry at 50° C., MTBE): Compound A Form A
Result ([3]; Compound A slurry at 50° C., Toluene): Compound A Form A
Result ([3]; Compound A slurry at 50° C., n-Heptane): Compound A Form A
Result ([3]; Compound A slurry at RT, 1,4-Dioxane): Compound A Form A
Result ([3]; Compound A slurry at RT, 1,4-Dioxane/IPAc, 1:3): Compound A Form A
Result ([3]; Compound A slurry at RT, 1,4-Dioxane/n-Heptane, 1:3): Compound A Form A
Result ([3]; Compound A slurry at RT, 2-MeTHF/Toluene, 1:4): Compound A Form A
Result ([3]; Compound A slurry at RT, ACN): Compound A Form A
Result ([3]; Compound A slurry at RT, Acetone): Compound A Form A
Result ([3]; Compound A slurry at RT, Acetone/Anisole, 1:3): Compound A Form A
Result ([3]; Compound A slurry at RT, Acetone/n-Heptane, 1:3): Compound A Form A
Result ([3]; Compound A slurry at RT, DCM/IPA, 1:4): Compound A Form A
Result ([3]; Compound A slurry at RT, DMSO/H2O, 1:6): Clear solution
Result ([3]; Compound A slurry at RT, EtOH/n-Heptane, 1:6): Compound A Form A
Result ([3]; Compound A slurry at RT, H2O): Clear solution
Result ([3]; Compound A slurry at RT, H2O/ACN, 1:4): Gel
Result ([3]; Compound A slurry at RT, H2O/IPA, 1:4): Gel
Result ([3]; Compound A slurry at RT, IPA): Compound A Form A
Result ([3]; Compound A slurry at RT, MEK): Compound A Form A
Result ([3]; Compound A slurry at RT, MEK/MTBE, 1:3): Compound A Form A
Result ([3]; Compound A slurry at RT, MEK/n-Heptane, 1:3): Compound A Form A
Result ([3]; Compound A slurry at RT, MeOH/CPME, 1:6): Compound A Form A
Result ([3]; Compound A slurry at RT, THF/H2O, 1:6): Clear solution
Slurry conversion result (XRPD form) ([3]; RT): adipate Type A was obtained
Result (Liquid vapor diffusion; solvent DMSO, anti-solvent EtOAc): Clear solution
Result (Liquid vapor diffusion; solvent EtOH, anti-solvent MTBE): Gel
Result (Liquid vapor diffusion; solvent EtOH, anti-solvent n-Pentane): Gel
Result (Liquid vapor diffusion; solvent H2O, anti-solvent ACN): Gel
Result (Liquid vapor diffusion; solvent H2O, anti-solvent IPA): Gel
Result (Liquid vapor diffusion; solvent THF, anti-solvent MTBE): Gel
Result (Liquid vapor diffusion; solvent THF, anti-solvent n-Heptane): Amorphous
Result (Slow evaporation; 2-MeTHF): Gel
Result (Slow evaporation; Acetone): Gel
Result (Slow evaporation; DCM): Gel
Result (Slow evaporation; EtOH): Gel
Result (Slow evaporation; H2O): Clear solution
Result (Slow evaporation; MeOH): Gel
Result (Slow evaporation; THF): Gel
Compound: C=CC(=O)N1CCN(c2nc(OC[C@@H]3CCCN3C)nc3c(F)c(-c4nc(N)cc(C)c4C(F)(F)F)c(Cl)cc23)[C@@H](C)C1 [Compound A Form A]
Form change after heating [1]: very slight differences were observed before and after heating
